Laboratory results as given in US20260218439A1, “METHOD OF TREATING OR REDUCING CANCER COMPRISING ADMINISTERING A COMPOUND 3-(BENZO[D][1,3]DIOXOL-5-YL)-7-(1-HYDROXYPROPAN-2-YL)-1-(1H-INDOLE-3-YL)-6,7-DIHYDRO-3H-OXAZOLE[3,4-A]PYRAZINE-5,8-DIONE” (BIOLAB SANUS FARMACEUTICA LTDA, priority 2019, published 2026).

Assays:
[1] = biological target: T1, PDE5A1 (Homo sapiens, UniProt O76074); assay: PDE5A1 fluorescence polarization enzyme assay (BPS Bioscience kit 60350); assay type: biochemical
T1 construct: purchased BPS Bioscience 60350
Method: The evaluation of the compound is studied using BPS Bioscience enzyme assay kit (catalogue 60350). The PDE5A1 Assay kit is designed for identification of PDE5A1 inhibitors using fluorescence polarization. The assay is based on the binding of a fluorescent nucleotide monophosphate generated by PDE5A1 enzyme to the binding agent.
In this methodology only two simple steps on a microtiter plate are required for PDE5A1 reactions. First, the fluorescently labeled cGMP is incubated with PDE5A1 for 1 hour. Second, the binding agent is added to the reaction mixture to produce a change in fluorescent polarization that can then be measured using a fluorescence reader equipped for the measurement of fluorescence polarization.
For the assay the storage reagent FAM-Cyclic-3′,5′-GMP (20 μM) is diluted with PDE assay buffer to achieve the solution with a […]; the PDE5A1 enzyme is thawed and diluted with the PDE buffer obtaining a PDE5A1 solution at 10 μg/mL.
The assay compounds are diluted with DMSO 100% (v/v) at a concentration of 1000 μM and subsequently diluted in a Sodium chloride 0.9% solution to obtain a curve of concentrations of interest for the assay. The compounds are diluted in concentrations of: 10 nM, 30 nM, 50 nM, 100 nM, 300 nM, 500 nM, 1 μM, 3 μM, 5 μM (DMSO 10% v/v).
The study is comprised of groups: (i) substrate control; (ii) positive control (KIT); (iii) samples in several concentrations; (iv) tadalafil (comparative control). Each parameter (group) is triple labeled.
• For the 4 groups there is added, to each microplate well, […] of the FAM-Cyclic-3′ reagent, 5′-GMP (200 μM). • To the substrate control group there is added, to each well, […] of vehicle (DMSO 10% v/v) and […] PDE Buffer. • To the positive control group there is added, to each well, […] of vehicle (DMSO 10% v/v). • To the tadalafil group: there is added 5 mL of the solution in the concentrations of interest. • To the test group there is added 5 mL of the sample solution (test compound)
OBSERVATION: the parameters tested are in triplicate.
To begin the reaction, add […] of the PDE5A1 enzyme (diluted as described above) to the microplate wells designated as Positive Control and Samples (test and tadalafil), and incubate the microplate, for 1 hour, at a temperature of 25° C.
After the incubation period, the reaction is interrupted by the addition, in all the wells, of […] of the binding agent solution and the microplate is incubated for 30 minutes, under light stirring, at room temperature. The reading of the microplate is carried out in Polarized Fluorescence (475-495 nm—excitation and 518-538 nm—emission detection) 500 nanoseconds integration time.

[2] = test system: PC3-human prostate cancer cells; assay: Cell proliferation inhibition (CYQuant intracellular DNA), PC3; assay type: cell-based; conditions: for % Cell Proliferation Inhibition (intracellular DNA) PC-3 (average ± E.P.M.): 72 hours
Method: (§1) For the execution of the assay, the compounds are diluted in DMSO 100% (v/v) at a concentration of 1000 μM and subsequently diluted in a Sodium Chloride solution 0.9% to obtain the storage solutions of interest for use in the assays. The final concentration of interest will be directly diluted in the cell culture medium. For the assay there are used the following tumor cell lineages: PC3-human prostate cancer cells; LNCAP-human prostate cancer cells; DU145-human prostate cancer; MNK45-human gastric cancer and RT4-human bladder cancer cells. The tumor cell lineages are maintained in culture according to standard procedures established by the Cell Bank of Rio de Janeiro (lineage place of origin) Procedure: • For the assay, the tumor cells are seeded in the concentration of 10.000 cells per well (final volume of the reaction of […]), the plate is incubated for 8 hours, for the cells to adhere to the wall of the wells. After this period, the plate is divided in groups: • (a) test group: […] of the samples were added (test compound) in the concentrations of interest; • (b) positive control group: […] of culture medium were added (100% of cell proliferation); • (c) negative control group: 200 mL of culture medium and […] of the vehicle used were added to dilute the compounds (without cells—zero proliferation); • (d) control group: […] were added of the vehicle used to dilute the compounds. This group is important to evaluate whether the vehicle used interferes in the cell proliferation. OBSERVATION: the treatment with the concentrations of samples (test compounds) and of the controls are carried out in triplicate. • Incubate the plate for 72 hours in a CO2 kiln at 37° C. • After the incubation period, add […] of the solution with DNA marker from the CYQuant Kit and incubate the plate, for 60 minutes, in a CO2 incubator at 37° C. The fluorescence intensity is determined using a fluorescence microplate reader with 485 nm excitation and 530 nm emission detection. The results obtained were normalized relative to the positive control group (100% proliferation). For the compounds there are prepared the storage solutions in the concentrations of: 100 nM, 1 μM, 3 μM, 5 μM, 10 μM and 30 μM (DMSO 10% v/v). While the final concentrations in the test are of: 10 nM, 100 nM, 300 nM, 500 nM, 1000 nM and 3000 nM (in DMSO 1% v/v).

[3] = test system: LNCAP-human prostate cancer cells; assay: Cell proliferation inhibition (CYQuant intracellular DNA), LNCAP; assay type: cell-based; conditions: for % Cell Proliferation Inhibition (intracellular DNA) LNCAP (average ± E.P.M.): 72 hours
Method: as §1

[4] = test system: DU145-human prostate cancer; assay: Cell proliferation inhibition (CYQuant intracellular DNA), DU145; assay type: cell-based; conditions: for % Cell Proliferation Inhibition (intracellular DNA) DU145 (average ± E.P.M.): 72 hours
Method: as §1

[5] = test system: MNK45-human gastric cancer; assay: Cell proliferation inhibition (CYQuant intracellular DNA), MNK45; assay type: cell-based; conditions: 72 hours
Method: as §1

[6] = test system: RT4-human bladder cancer cells; assay: Cell proliferation inhibition (CYQuant intracellular DNA), RT4; assay type: cell-based; conditions: for % Cell Proliferation Inhibition (intracellular DNA) RT4 (average ± E.P.M.): 72 hours
Method: as §1

% of Inhibition (PDE5A1) ([1]; compound 500 nM): 57%
% of Inhibition (PDE5A1) ([1]; compound 1000 nM): 71%
% of Inhibition (PDE5A1) ([1]; compound 3000 nM): 88%
Substance: (R)-3-(benzo [d][1, 3]dioxol-5-yl)-7-((S)-1-hydroxypropan-2-yl)-1-(1H-indole-3-yl)-6, 7-dihydro-3H-oxazole [3, 4-a]pyrazine-5, 8-dione with (S)-3-(benzo [d][1,3]dioxol-5-yl)-7-((S)-1-hydroxypropan-2-yl)-1-(1H-indole-3-yl)-6, 7-dihydro-3H-oxazole [3, 4-a]pyrazine-5, 8-dione [BL-241]
PDE5 inhibition (result in words) ([1]; concentration series): capable of inhibiting the PDE5 in a dose-dependent manner
antiproliferative effect (result in words) ([2]; PC3 prostate cancer tumor lineage): presented antiproliferative effect
% Cell Proliferation Inhibition (intracellular DNA) PC-3 (average ± E.P.M.) ([2]; PC-3, 10 nM): 27 ± 11%
% Cell Proliferation Inhibition (intracellular DNA) PC-3 (average ± E.P.M.) ([2]; PC-3, 100 nM): 36 ± 7%
% Cell Proliferation Inhibition (intracellular DNA) PC-3 (average ± E.P.M.) ([2]; PC-3, 300 nM): 42 ± 6%
% Cell Proliferation Inhibition (intracellular DNA) PC-3 (average ± E.P.M.) ([2]; PC-3, 500 nM): 46 ± 1%
% Cell Proliferation Inhibition (intracellular DNA) PC-3 (average ± E.P.M.) ([2]; PC-3, 1000 nM): 33 ± 3%
antiproliferative effect (result in words) ([3]; LNCAP prostate cancer tumor lineage): presented antiproliferative effect
% Cell Proliferation Inhibition (intracellular DNA) LNCAP (average ± E.P.M.) ([3]; 10 nM): 25 ± 2%
% Cell Proliferation Inhibition (intracellular DNA) LNCAP (average ± E.P.M.) ([3]; 100 nM): 37 ± 3%
% Cell Proliferation Inhibition (intracellular DNA) LNCAP (average ± E.P.M.) ([3]; 300 nM): 38 ± 4%
% Cell Proliferation Inhibition (intracellular DNA) LNCAP (average ± E.P.M.) ([3]; 500 nM): 44 ± 2%
% Cell Proliferation Inhibition (intracellular DNA) LNCAP (average ± E.P.M.) ([3]; 1000 nM): 34 ± 6%
% Cell Proliferation Inhibition (intracellular DNA) DU145 (average ± E.P.M.) ([4]; DU145, 100 nM): 33 ± 8%
% Cell Proliferation Inhibition (intracellular DNA) DU145 (average ± E.P.M.) ([4]; DU145, 300 nM): 17 ± 3%
% Cell Proliferation Inhibition (intracellular DNA) DU145 (average ± E.P.M.) ([4]; DU145, 500 nM): 18 ± 2%
% Cell Proliferation Inhibition (intracellular DNA) DU145 (average ± E.P.M.) ([4]; DU145, 1000 nM): 22 ± 2%
% Cell Proliferation Inhibition (intracellular DNA) DU145 (average ± E.P.M.) ([4]; DU145, 3000 nM): 43 ± 5%
antiproliferative effect (result in words) ([4]; DU145 prostate cancer tumor lineage): presented antiproliferative effect
% Cell Proliferation Inhibition (intracellular DNA) MNK45 (average ± E.P.M.) ([5]; MNK45, 100 nM): 25 ± 1%
% Cell Proliferation Inhibition (intracellular DNA) MNK45 (average ± E.P.M.) ([5]; MNK45, 300 nM): 10 ± 2%
% Cell Proliferation Inhibition (intracellular DNA) MNK45 (average ± E.P.M.) ([5]; MNK45, 500 nM): 2 ± 1%
% Cell Proliferation Inhibition (intracellular DNA) MNK45 (average ± E.P.M.) ([5]; MNK45, 1000 nM): 4 ± 1%
% Cell Proliferation Inhibition (intracellular DNA) MNK45 (average ± E.P.M.) ([5]; MNK45, 3000 nM): 20 ± 3%
% Cell Proliferation Inhibition (intracellular DNA) RT4 (average ± E.P.M.) ([6]; RT4, 100 nM): 28 ± 6%
% Cell Proliferation Inhibition (intracellular DNA) RT4 (average ± E.P.M.) ([6]; RT4, 300 nM): 5 ± 2%
% Cell Proliferation Inhibition (intracellular DNA) RT4 (average ± E.P.M.) ([6]; RT4, 500 nM): 4 ± 2%
% Cell Proliferation Inhibition (intracellular DNA) RT4 (average ± E.P.M.) ([6]; RT4, 1000 nM): 11 ± 8%
% Cell Proliferation Inhibition (intracellular DNA) RT4 (average ± E.P.M.) ([6]; RT4, 3000 nM): 57 ± 4%
antiproliferative effect (result in words) ([6]; RT4 bladder cancer tumor lineage): presented antiproliferative effect
